Source: patent US20250311727A1, “SUBSTITUTED 2-AMINOAZINES AND SALTS THEREOF, AND USE THEREOF AS HERBICIDAL ACTIVE SUBSTANCES” (BAYER AKTIENGESELLSCHAFT, priority 2022, published 2025)

Legend:
Assay type in all cases: in vivo
[1] = test system: Amaranthus retroflexus; experiment: Pre-emergence herbicide efficacy at 320 g/ha, AMARE; settings: scored visually after about 3 weeks vs untreated controls, 100% = plants have died
Method in brief: (§1)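 Visual percent activity versus untreated controls, read about 3 weeks after treatment, where 100% means dead plants and 0% means control-like growth. Compound (WP or EC, 0.5% additive, 600 L/ha water) was sprayed onto the covering soil over freshly sown weed seeds in sandy loam, then kept in a greenhouse.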

[2] = test system: Lolium rigidum; experiment: Pre-emergence herbicide efficacy at 320 g/ha, LOLRI; settings: scored visually after about 3 weeks vs untreated controls, 100% = plants have died
From the text: (§2) Unwanted plants/weeds: • ABUTH: Abutilon theophrasti • ALOMY: Alopecurus myosuroides • AMARE: Amaranthus retroflexus • DIGSA: Digitaria sanguinalis • ECHCG: Echinochloa crus-galli • KCHSC: Kochia scoparia • LOLRI: Lolium rigidum • MATIN: Matricaria inodora • POAAN: Poa annua • POLCO: Polygonum convolvulus • SETVI: Setaria viridis • STEME: Stellaria media • VERPE: Veronica persica • VIOTR: Viola tricolor A. Post-Emergence Herbicidal Efficacy at 320 g/ha
(§3) Seeds of mono- and dicotyledonous weed plants were placed in plastic pots in sandy loam soil (doubly sown with one species each of mono- or dicotyledonous weed plants per pot) and covered with soil. The compounds of the invention, formulated in the form of wettable powders (WP) or as emulsion concentrates (EC), were then applied to the surface of the covering soil as aqueous suspension or emulsion with addition of 0.5% additive at a water application rate of 600 litres per hectare (converted). After the treatment, the pots were placed in a greenhouse and kept under good growth conditions for the test plants. After about 3 weeks, the efficacy of the preparations was scored visually in comparison with untreated controls as percentages.
(§4) For example, 100% activity=the plants have died, 0% activity=like control plants.
(§5) Tables C1 to C12 below show the effects of selected compounds of the general formula (I) according to Table 1 on various harmful plants and at an application rate corresponding to 320 g/ha, which were obtained by the trial procedure specified above.

[3] = test system: Poa annua; experiment: Pre-emergence herbicide efficacy at 320 g/ha, POAAN; settings: scored visually after about 3 weeks vs untreated controls, 100% = plants have died
Method in brief: as §1

[4] = test system: Kochia scoparia; experiment: Pre-emergence herbicide efficacy at 320 g/ha, KCHSC; settings: scored visually after about 3 weeks vs untreated controls, 100% = plants have died
Method in brief: as §1

[5] = test system: Echinochloa crus-galli; experiment: Post-emergence herbicidal efficacy at 320 g/ha, ECHCG; settings: rated visually after about 3 weeks vs untreated controls, 100% = plants have died
Method in brief: (§6)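 Visual rating about 3 weeks after treatment, scored against untreated plants on a scale from 0% (no effect) to 100% (dead). Application was foliar, as aqueous WP or EC suspension or emulsion with 0.5% additive at 600 L/ha, on one-leaf-stage greenhouse plants 2–3 weeks old, grown in sandy loam.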

[6] = test system: Veronica persica; experiment: Pre-emergence herbicide efficacy at 320 g/ha, VERPE; settings: scored visually after about 3 weeks vs untreated controls, 100% = plants have died
Method in brief: as §1

[7] = test system: Digitaria sanguinalis; experiment: Pre-emergence herbicide efficacy at 320 g/ha, DIGSA; settings: scored visually after about 3 weeks vs untreated controls, 100% = plants have died
Method in brief: as §1

[8] = test system: Setaria viridis; experiment: Pre-emergence herbicide efficacy at 320 g/ha, SETVI; settings: scored visually after about 3 weeks vs untreated controls, 100% = plants have died
Method in brief: as §1

[9] = test system: Amaranthus retroflexus; experiment: Post-emergence herbicidal efficacy at 320 g/ha, AMARE; settings: rated visually after about 3 weeks vs untreated controls, 100% = plants have died
Method in brief: as §6

[10] = test system: Kochia scoparia; experiment: Post-emergence herbicidal efficacy at 320 g/ha, KCHSC; settings: rated visually after about 3 weeks vs untreated controls, 100% = plants have died
Method in brief: as §6

[11] = test system: Stellaria media; experiment: Pre-emergence herbicide efficacy at 320 g/ha, STEME; settings: scored visually after about 3 weeks vs untreated controls, 100% = plants have died
Method in brief: as §1

[12] = test system: Digitaria sanguinalis; experiment: Post-emergence herbicidal efficacy at 320 g/ha, DIGSA; settings: rated visually after about 3 weeks vs untreated controls, 100% = plants have died
From the text: as §2
(§7) Seeds of mono- and dicotyledonous weed plants were placed in plastic pots in sandy loam soil (doubly sown with in each case one species of mono- or dicotyledonous weed plants per pot), covered with soil and cultivated in a greenhouse under controlled growth conditions. 2 to 3 weeks after sowing, the test plants were treated at the one-leaf stage. The compounds of the invention, formulated in the form of wettable powders (WP) or as emulsion concentrates (EC), were applied to the green parts of the plants as aqueous suspension or emulsion with addition of 0.5% additive at a water application rate equivalent to 600 litres per hectare. After the test plants had been kept in the greenhouse under optimum growth conditions for about 3 weeks, the activity of the preparations was rated visually in comparison to untreated controls.
as §4
(§8) Tables A1 to A10 below show the effects of selected compounds of the general formula (I) according to Table 1 on various harmful plants and at an application rate corresponding to 320 g/ha, which were obtained by the trial procedure specified above.

[13] = test system: Viola tricolor; experiment: Post-emergence herbicidal efficacy at 80 g/ha, VIOTR; settings: rated visually after about 3 weeks vs untreated controls, 100% = plants have died
From the text: as §2
Seeds of monocotyledonous and dicotyledonous weeds and crop plants were placed in sandy loam in plastic or organic planting pots, covered with soil and cultivated in a greenhouse under controlled growth conditions. 2 to 3 weeks after sowing, the test plants were treated at the one-leaf stage. The compounds of the invention, formulated in the form of wettable powders (WP) or as emulsion concentrates (EC), were then sprayed onto the green parts of the plants as aqueous suspension or emulsion with addition of 0.5% additive at a water application rate of 600 l/ha (converted). After the test plants had been kept in the greenhouse under optimum growth conditions for about 3 weeks, the activity of the preparations was rated visually in comparison to untreated controls. For example, 100% activity=the plants have died, 0% activity=like control plants.
Tables B1 to B11 below show the effects of selected compounds of the general formula (I) according to Table 1 on various harmful plants and an application rate corresponding to 80 g/ha, which were obtained by the experimental procedure mentioned above.

[14] = test system: Amaranthus retroflexus; experiment: Pre-emergence herbicide efficacy at 80 g/ha, AMARE; settings: scored visually after about 3 weeks vs untreated controls, 100% = plants have died
From the text: as §2
(§9) Seeds of monocotyledonous and dicotyledonous weed plants and crop plants were placed in plastic or organic planting pots and covered with soil. The compounds of the invention, formulated in the form of wettable powders (WP) or as emulsion concentrates (EC), were then applied to the surface of the covering soil as aqueous suspension or emulsion with addition of 0.5% additive at a water application rate equivalent to 600 l/ha. After the treatment, the pots were placed in a greenhouse and kept under good growth conditions for the test plants. After about 3 weeks, the efficacy of the preparations was scored visually in comparison with untreated controls as percentages. For example, 100% activity=the plants have died, 0% activity=like control plants.
(§10) Tables D1 to D12 below show the effects of selected compounds of the general formula (I) according to Table 1 on various harmful plants and an application rate corresponding to 80 g/ha, which were obtained by the experimental procedure mentioned above.

[15] = test system: Setaria viridis; experiment: Pre-emergence herbicide efficacy at 80 g/ha, SETVI
From the text: as §2, §9, §10

[16] = test system: Veronica persica; experiment: Post-emergence herbicidal efficacy at 80 g/ha, VERPE; settings: rated visually after about 3 weeks vs untreated controls, 100% = plants have died
Method in brief: (§11)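 Visual damage ratings, 0% (like untreated controls) to 100% (plants dead), were taken about 3 weeks after treatment. Plants were sprayed at the one-leaf stage with WP- or EC-formulated compound in water containing 0.5% additive, 600 l/ha, having been raised in sandy loam in the greenhouse.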

[17] = test system: Matricaria inodora; experiment: Pre-emergence herbicide efficacy at 320 g/ha, MATIN; settings: scored visually after about 3 weeks vs untreated controls, 100% = plants have died
From the text: as §2, §3, §4, §5

[18] = test system: Veronica persica; experiment: Post-emergence herbicidal efficacy at 320 g/ha, VERPE; settings: rated visually after about 3 weeks vs untreated controls, 100% = plants have died
Method in brief: as §6

[19] = test system: Amaranthus retroflexus; experiment: Post-emergence herbicidal efficacy at 80 g/ha, AMARE; settings: rated visually after about 3 weeks vs untreated controls, 100% = plants have died
Method in brief: as §11

[20] = test system: Digitaria sanguinalis; experiment: Pre-emergence herbicide efficacy at 80 g/ha, DIGSA; settings: scored visually after about 3 weeks vs untreated controls, 100% = plants have died
From the text: as §2, §9, §10

[21] = test system: Echinochloa crus-galli; experiment: Pre-emergence herbicide efficacy at 320 g/ha, ECHCG; settings: scored visually after about 3 weeks vs untreated controls, 100% = plants have died
Method in brief: as §1

[22] = test system: Stellaria media; experiment: Post-emergence herbicidal efficacy at 320 g/ha, STEME; settings: rated visually after about 3 weeks vs untreated controls, 100% = plants have died
Method in brief: as §6

[23] = test system: Veronica persica; experiment: Pre-emergence herbicide efficacy at 80 g/ha, VERPE
From the text: as §2, §9, §10

[24] = test system: Viola tricolor; experiment: Pre-emergence herbicide efficacy at 80 g/ha, VIOTR
From the text: as §2, §9, §10

[25] = test system: Kochia scoparia; experiment: Pre-emergence herbicide efficacy at 80 g/ha, KCHSC; settings: scored visually after about 3 weeks vs untreated controls, 100% = plants have died
From the text: as §2, §9, §10

[26] = test system: Poa annua; experiment: Post-emergence herbicidal efficacy at 320 g/ha, POAAN; settings: rated visually after about 3 weeks vs untreated controls, 100% = plants have died
From the text: as §2, §7, §4, §8

[27] = test system: Polygonum convolvulus; experiment: Pre-emergence herbicide efficacy at 80 g/ha, POLCO; settings: scored visually after about 3 weeks vs untreated controls, 100% = plants have died
From the text: as §2, §9, §10

[28] = test system: Abutilon theophrasti; experiment: Pre-emergence herbicide efficacy at 320 g/ha, ABUTH; settings: scored visually after about 3 weeks vs untreated controls, 100% = plants have died
From the text: as §2, §3, §4, §5

[29] = test system: Setaria viridis; experiment: Post-emergence herbicidal efficacy at 320 g/ha, SETVI; settings: rated visually after about 3 weeks vs untreated controls, 100% = plants have died
From the text: as §2, §7, §4, §8

[30] = test system: Kochia scoparia; experiment: Post-emergence herbicidal efficacy at 80 g/ha, KCHSC; settings: rated visually after about 3 weeks vs untreated controls, 100% = plants have died
Method in brief: as §11

[31] = test system: Abutilon theophrasti; experiment: Post-emergence herbicidal efficacy at 320 g/ha, ABUTH; settings: rated visually after about 3 weeks vs untreated controls, 100% = plants have died
Method in brief: as §6

| SMILES | Pre-emergence efficacy at 320 g/ha against AMARE in % [1] [%] | Pre-emergence efficacy at 320 g/ha against LOLRI in % [2] [%] | Pre-emergence efficacy at 320 g/ha against POAAN in % [3] [%] | Pre-emergence efficacy at 320 g/ha against KCHSC in % [4] [%] | Post-emergence efficacy at 320 g/ha against ECHCG in % [5] [%] | Pre-emergence efficacy at 320 g/ha against VERPE in % [6] [%] | Pre-emergence efficacy at 320 g/ha against DIGSA in % [7] [%] | Pre-emergence efficacy at 320 g/ha against SETVI in % [8] [%] | Post-emergence efficacy at 320 g/ha against AMARE in % [9] [%] | Post-emergence efficacy at 320 g/ha against KCHSC in % [10] [%] | Pre-emergence efficacy at 320 g/ha against STEME in % [11] [%] | also measured |
| --- | --- | --- | --- | --- | --- | --- | --- | --- | --- | --- | --- | --- |
| Fc1cnc(Nc2cccc(F)c2-n2cc(C(F)(F)F)cn2)nc1 [Example 1-48] | 100 | 100 | 100 | 100 | 90 | 100 | 100 | 100 | 100 | 90 | 100 |  |
| N#Cc1cccc(Nc2ncc(Cl)cn2)c1-n1cc(C(F)(F)F)cn1 [Example 1-38, 3-(5-Chloropyrimidin-2-ylamino)-2-(4-(trifluoromethyl)-1H-pyrazol-1-yl)benzonitrile] | 100 | 90 | 100 | 90 | 100 | 100 | 100 | 100 | 100 | 100 | 100 | Post-emergence efficacy at 320 g/ha against DIGSA in % [12]: 90%; Post-emergence efficacy at 80 g/ha against VIOTR in % [13]: 100%; Pre-emergence efficacy at 80 g/ha against AMARE in % [14]: 100%; Pre-emergence efficacy against SETVI [15]: 100%; Post-emergence efficacy at 80 g/ha against VERPE in % [16]: 90%; Pre-emergence efficacy at 320 g/ha against MATIN in % [17]: 100%; Post-emergence efficacy at 320 g/ha against VERPE in % [18]: 100%; Post-emergence efficacy at 80 g/ha against AMARE in % [19]: 100%; Pre-emergence efficacy at 80 g/ha against DIGSA in % [20]: 100%; Pre-emergence efficacy at 320 g/ha against ECHCG in % [21]: 90%; Post-emergence efficacy at 320 g/ha against STEME in % [22]: 100%; Pre-emergence efficacy against VERPE [23]: 90%; Pre-emergence efficacy against VIOTR [24]: 100%; Pre-emergence efficacy at 80 g/ha against KCHSC in % [25]: 100%; Post-emergence efficacy at 320 g/ha against POAAN in % [26]: 90%; Pre-emergence efficacy at 80 g/ha against POLCO in % [27]: 100%; Pre-emergence efficacy at 320 g/ha against ABUTH in % [28]: 90%; Post-emergence efficacy at 320 g/ha against SETVI in % [29]: 90%; Post-emergence efficacy at 80 g/ha against KCHSC in % [30]: 100%; Post-emergence efficacy at 320 g/ha against ABUTH in % [31]: 90% |
